Publication PMC11313193, “Which Constituents Determine the Antioxidant Activity and Cytotoxicity of Garlic? Role of Organosulfur Compounds and Phenolics” (International Journal of Molecular Sciences, 2024)
Values after ≈ are worked out from the molar mass of the structure shown. Read-outs that look alike come from different tables or passages of the source.

Key:
MRC-5 fibroblasts = test: Cytotoxicity (Neutral Red), MRC-5 fibroblasts; assay type: cell-based, human; settings: 24 h exposure
Description: (§1) The PEO1 cells, SKOV-3 cells, and MRC-5 cells were grown at 37 °C and 5% CO2 in RPMI + GlutaMAX medium, McCoy’s 5A medium, and the DMEM + GlutaMAX medium, respectively. The media were supplemented with 10% heat-inactivated fetal calf serum and penicillin/streptomycin. The cell viability was evaluated using the Trypan Blue exclusion test.
(§2) In the cytotoxicity experiments, cells were grown in wells of sterile 96-well plates. The seeding density was 1 × 10^4 for SKOV-3 and MRC-5 cells and 1.5 × 10^4 for PEO1 cells. The cells were allowed to grow in the incubator for 24 h. Then, the medium was removed and new medium with an examined compound was added. The stock solutions of the compounds studied diluted with the appropriate cell medium were filtered before the addition to the cells using 0.22 µm filters. No more than 0.02% of DMSO was present in the media, and it had no discernible impact on the treated cells. Cells not exposed to any compound served as a control. After another 24 h incubation, the medium was gently aspirated, and the wells were added with 2% sterile Neutral Red solution (100 µL). The plates were then incubated (37 °C, 5% CO2) for one hour. The Neutral Red solution was aspirated, and the wells were washed two times with warm (37 °C) PBS. Subsequently, 100 µL of a permeabilization mixture (water/ethanol/glacial acetic acid, 50/49/1, v/v/v) was introduced to each well. The plates were shaken at 700 rpm for 20 min and absorbance was read at a wavelength of 540 nm against 620 nm.

[1] = ABTS^● decolorization assay; settings: 30 min incubation at room temperature, absorbance at 734 nm
Description: A modification of the ABTS^● decolorization assay was employed. Briefly, various volumes of solutions of the studied compounds were introduced to wells of a 96-well microplate, each prefilled 200 μL of ABTS^● solution. […] The drop in absorbance after 30 min incubation at room temperature was read as a measure of the antioxidant activity.
(§3) All assays were standardized with respect to Trolox. The antioxidant activity was calculated in each case as a ratio of the slope of the dependence of absorbance change on the concentration of a studied compound to the slope of the dependence of absorbance change of standard samples concerning Trolox on the concentration of Trolox. Antioxidant activities were expressed in moles of Trolox equivalents (TE)/mol of a studied compound, as described previously.

MDA-MB-231 cells = system: MDA-MB-231 cells; parameters: method as in PMID 27177074; settings: 100 μM; cited from earlier work
[2] = system: PEO1 ovarian cancer cells; test: Cytotoxicity (Neutral Red), PEO1 cells; assay type: cell-based, human; settings: 24 h exposure
Description: as §1, §2

[3] = system: PC-3 prostate cancer cells; parameters: method as in PMID 26124008; settings: read-out: Concentration decreasing viability of PC-3 cells to 50%; cited from earlier work
[4] = system: SKOV-3 ovarian cancer cells; test: Cytotoxicity (Neutral Red), SKOV-3 cells; assay type: cell-based, human; settings: 24 h exposure
Description: as §1, §2

osteosarcoma 143B cells = system: osteosarcoma 143B cells; parameters: method as in PMID 27158383; settings: after 48 h; read-out: Concentration decreasing viability of 143B cells to 50%; cited from earlier work
[5] = system: LNCaP prostate cancer cells; parameters: method as in PMID 26124008; settings: read-out: Concentration decreasing viability of LNCaP cells to 50%; cited from earlier work
[6] = Ferric reducing antioxidant power (FRAP) assay; settings: 30 min at ambient temperature, pH 3.6, absorbance at 593 nm
Description: The method proposed by Benzie and Strain [91] was employed with a slight modification. Briefly, increasing volumes of solutions of the studied compounds were added to wells of a 96-well microplate prefilled with 200 μL of the working solution composed of 0.3 M acetate buffer, pH 3.6 (10 volumes), 10 mM 2,4,6-tris(2-pyridyl)-s-triazine (TPTZ), in 40 mM HCl (1 volume) and 20 mM FeCl3 (1 volume), was prepared immediately before use. After 30 min incubation at ambient temperature and the absorbance of the Fe^2+-TPTZ complex was read at 593 nm.
as §3

[7] = DPPH^● decolorization assay; settings: 30 min at ambient temperature in the dark, absorbance at 517 nm
Description: The assay was performed as described in a previous article. Briefly, increasing volumes of solutions of the studied compounds were introduced to wells of a 96-well microplate, each with 200 μL of 0.3 mM DPPH^● solution in methanol. The reaction was allowed to proceed for 30 min at ambient temperature in the dark, and absorbance at 517 nm was read. The absorbance decrease was a measure of the antioxidant activity.
as §3

osteosarcoma MG63 cells = system: osteosarcoma MG63 cells; parameters: method as in PMID 27158383; settings: after 48 h; read-out: Concentration decreasing viability of MG63 cells to 50%; cited from earlier work
[8] = system: P388-D1 mouse lymphoid cancer cells; parameters: method as in PMID 8593472; settings: cited from earlier work
[9] = system: HeLa cervical cancer cells; parameters: method as in PMID 24843386; settings: range given for HeLa and HTB-35, converted; cited from earlier work
[10] = system: HL-60RG human promyelocytic leukemia cells; parameters: method as in PMID 8593472; settings: cited from earlier work
[11] = system: dRLh-84 rat hepatoma cells; parameters: method as in PMID 8593472; settings: cited from earlier work
[12] = system: HTB-35 cervical cancer cells; parameters: method as in PMID 24843386; settings: range given for HeLa and HTB-35, converted; cited from earlier work
[13] = system: KB human epidermoid carcinoma cells; parameters: method as in PMID 8593472; settings: cited from earlier work
[14] = system: HeLa human epithelial carcinoma cells; parameters: method as in PMID 8593472; settings: cited from earlier work
[15] = system: DUI45 prostate cancer cells; parameters: method as in PMID 19589639; settings: 48 h exposure, cited from earlier work
[16] = system: PC-3 prostate cancer cells; parameters: method as in PMID 19589639; settings: 48 h exposure, cited from earlier work
[17] = system: PLC/PRF/5 human hepatoma cells; parameters: method as in PMID 8593472; settings: cited from earlier work
[18] = system: LNCaP prostate cancer cells; parameters: method as in PMID 19589639; settings: 48 h exposure, cited from earlier work

COc1cc(/C=C/C(=O)O)ccc1O [Ferulic acid, ferulic acid]
Concentration range with no significant decrease in viability of MRC-5 cells (MRC-5 fibroblasts): 0 to 1000 µM
Antioxidant activity, ABTS^● Decolorization [1]: 1.409 ± 0.096 mol Trolox equivalents (TE)/mol compound
Viability of MDA-MB-231 cells (decreased to) (MDA-MB-231 cells): about 75%
Concentration range with no significant decrease in viability of PEO1 cells [2]: 0 to 1000 µM
IC50 [3]: 300 µM
Concentration range with no significant decrease in viability of SKOV-3 cells [4]: 0 to 1000 µM
IC50 (osteosarcoma 143B cells): 60 µM
IC50 [5]: 500 µM
Antioxidant activity, FRAP [6]: 0.554 ± 0.017 mol Trolox equivalents (TE)/mol compound
Antioxidant activity, DPPH^● Decolorization [7]: 0.185 ± 0.070 mol Trolox equivalents (TE)/mol compound
IC50 (osteosarcoma MG63 cells): 66 µM

O=C(O)c1cc(O)c(O)c(O)c1 [Gallic acid, gallic acid]
IC50 P388-D1 cells [8]: 4.8 µg/mL (≈ 28.2 µM)
IC50 ([8]; converted from μg/mL): 27 µM
Concentration at which viability of MRC-5 cells was lowered (MRC-5 fibroblasts; p < 0.05): 200 to 1000 µM
IC50 (MRC-5 fibroblasts; Homo sapiens, MRC5, Neutral Red, read-out: IC50 MRC-5): 243 µM
IC50 [9]: 111 to 139 µM
IC50 HL-60RG cells [10]: 5.4 µg/mL (≈ 31.7 µM)
IC50 ([10]; converted from μg/mL): 30 µM
IC50 dRLh-84 cells [11]: 6.2 µg/mL (≈ 36.4 µM)
IC50 ([11]; converted from μg/mL): 34 µM
IC50 [12]: 111 to 139 µM
Antioxidant activity, ABTS^● Decolorization [1]: 0.972 ± 0.028 mol Trolox equivalents (TE)/mol compound
Concentration at which viability of PEO1 cells was lowered ([2]; p < 0.05): 200 to 1000 µM
IC50 ([2]; Homo sapiens, PEO1, Neutral Red, read-out: IC50 PEO1): 19 µM
IC50 KB cells [13]: 13.2 µg/mL (≈ 77.6 µM)
IC50 ([13]; converted from μg/mL): 73 µM
IC50 HeLa cells [14]: 6.1 µg/mL (≈ 35.9 µM)
IC50 ([14]; converted from μg/mL): 34 µM
Concentration at which viability of SKOV-3 cells was lowered ([4]; p < 0.05): 200 to 1000 µM
IC50 ([4]; Homo sapiens, SK-OV-3, Neutral Red, read-out: IC50 SKOV-3): 115 µM
IC50 ([15]; converted): 89 µM
IC50 DUI45 prostate cancer cells [15]: 16 µg/mL (≈ 94.1 µM)
IC50 ([16]; converted): 89 µM
IC50 PC-3 prostate cancer cells [16]: 16 µg/mL (≈ 94.1 µM)
IC50 PLC/PRF/5 cells [17]: 6.6 µg/mL (≈ 38.8 µM)
IC50 ([17]; converted from μg/mL): 37 µM
Antioxidant activity, FRAP [6]: 0.332 ± 0.001 mol Trolox equivalents (TE)/mol compound
Antioxidant activity, DPPH^● Decolorization [7]: 0.178 ± 0.023 mol Trolox equivalents (TE)/mol compound
IC50 ([18]; converted): 117 µM
IC50 LNCaP prostate cancer cells [18]: 21 µg/mL (≈ 123 µM)
